According to PubChem BioAssay AID2253 (Southern Research Specialized Biocontainment Screening …, 2010):

System: THP-1 viability, CellTiter-Glo luminescence, 72 h
Test: human monocytic cell viability reduction – S. typhimurium screen hits, cytotoxicity control for Salmonella PhoP regulon inhibitors, dose response (AID 2253)

Compound | EC50
CC(C)CCNC(=S)Nc1ccc([N+](=O)[O-])cc1 | 16.5 µM
C/C(CC(=O)Nc1ccc(Cl)c(C(F)(F)F)c1)=N\NC(=O)c1cccc(O)c1 | 24.2 µM
O=C(/C=C/c1ccco1)Oc1cc(Br)cc(/C=N/NC(=O)c2ccccc2O)c1 | 0.35 µM
CCC(C)(C)c1ccc(OCCCC[n+]2ccc(C)cc2)c(C(C)(C)CC)c1 | 1.48 µM
Cc1ccc(-c2csc(N=C(N)N)n2)c(C)c1 | 23.5 µM
O=C(N/N=C/c1ccc(Sc2ccccn2)o1)c1cc2ccccc2cc1O | 35.4 µM
CN(C)CCCN(C(=O)CCc1ccccc1)c1nc2ccc(Cl)cc2s1 | 25.9 µM
COc1ccc2c(c1)nc(N)n2Cc1ccccc1 | 46.3 µM
Cc1c2ccncc2c(C)c2c1[nH]c1ccccc12 | 2.53 µM
CCn1c2ccccc2c2cc(N)ccc21 | 16.1 µM
CCCCn1c(/N=C/c2c[nH]c3ccccc23)nc2ccccc21 | 27.2 µM
Cc1cc(C2=NNC(=NC3CC3)SC2)c(C)n1-c1ccccc1 | 46.9 µM
CC(=O)Oc1cc2cccc(OC(C)=O)c(=O)c2c(OC(C)=O)c1OC(C)=O | 14.6 µM
Cc1cccc(Nc2nc(NCc3ccco3)c3ccccc3n2)c1 | 5.29 µM
C[C@H]1c2cccc(O)c2C(O)=C2C(=O)C3(O)C(O)=C(C(N)=O)C(=O)[C@@H](N(C)C)[C@@H]3[C@@H](O)[C@@H]21 (stereo not given in full) | 34.4 µM
CCCCCCCCCCCCCCCC[N+](C)(C)CC | 0.7 µM
Oc1cccc(/C=N/Nc2ccc(Cl)nn2)c1O | 0.66 µM
CCCCC(CC)CN=C(N)NC(N)=NCCCCCCN=C(N)NC(N)=NCC(CC)CCCC (stereo not given) | 1.9 µM
CC(C)c1ccc(C2C3CSCC=C3C(C#N)=C(N)C2(C#N)C#N)cc1 (stereo not given) | 39.7 µM
O=C(N/N=C/c1ccc(O)cc1O)/C(=C/c1ccccc1)CCO | 4.05 µM
Cc1nc([N+](=O)[O-])c(Br)n1CC(=O)c1ccccc1 | 17.7 µM
CCCCCCCNC(=O)C1(CC2CC(c3ccc(Cl)cc3)=NO2)CCNCC1 (stereo not given) | 5.66 µM
COc1ccc(/C=C2\CN(Cc3ccccc3)C/C(=C\c3ccc(OC)cc3)C2=O)cc1 | 12.7 µM

Compound | EC50
CN(C)CC(C(=O)c1ccccc1)c1ccccc1 (stereo not given) | 4.94 µM
N=c1n(CC(=O)c2ccc(Br)s2)c2ccccc2n1Cc1ccccc1 | 7.56 µM
Oc1cccc2ccc(Nc3ccccn3)nc12 | 2.16 µM
O=C(Nc1ccc2snnc2c1)Nc1cccc2ccccc12 | 33.7 µM
CCCCOc1ccc(S(=O)(=O)NNC(=O)C2Cc3c(ccc4ccccc34)O2)cc1 (stereo not given) | 42.6 µM
Cc1ccccc1NC(=O)CCC(=O)N/N=C/c1cc([N+](=O)[O-])ccc1O | 19.5 µM
COc1ccccc1N1CCN(c2ccc(-c3ccccc3)nn2)CC1 | 2.61 µM
Cc1ccc(O)c(-c2cc(-c3cccc(F)c3)n[nH]2)c1 | 18.2 µM
Oc1cc(Cl)ccc1Oc1ccc(Cl)cc1Cl | 33.9 µM
Clc1ccc(CN2CCC(c3nc4ccc(Cl)cc4[nH]3)CC2)cc1 | 29.4 µM
c1ccc2c(c1)Sc1ccccc1N2CC1CN2CCC1CC2 (stereo not given) | 7.93 µM
Cc1cc(N/N=C/c2cccc(Cl)c2)nc(NCc2ccccc2)n1 | 23.5 µM
C/C(=N\Nc1nc2ccccc2[nH]1)c1ccccn1 | 0.92 µM
CCOC(=O)C[n+]1c(C)sc2ccc(OC)cc21 | 25.8 µM
COc1ccc(-c2cn[nH]c2-c2ccc(OCc3ccc([N+](=O)[O-])cc3)cc2O)cc1 | 15.1 µM
CCCCCNCC(=O)Nc1cccc(C(=O)Nc2cccc(C(F)(F)F)c2)c1 | 12.4 µM
Cc1ccccc1-n1nnnc1Sc1nnnn1-c1ccccc1 | 12 µM
Cc1cc(C(C)(C)CC(C)(C)C)ccc1OCCOCC[N+](C)(C)Cc1ccccc1 | 1.61 µM
CC(C)COc1ccc(Cc2cnc(N)nc2N)cc1 | 36.9 µM
Cc1ccc(C(=O)Sc2cccccc2=O)cc1 | 2.64 µM
c1ccc(Nc2nc3ccccc3[nH]2)nc1 | 30.6 µM
Nc1ncn([C@@H]2O[C@H](CO)[C@@H](O)[C@H]2O)c(=O)n1 | 17.4 µM
Cc1cc2cc(CCNC(=O)c3cccs3)c(=O)[nH]c2cc1C | 17.2 µM

Compound | EC50
CCCCCCCCCCOC(=O)Cn1c(COc2cccc(C)c2)[n+](C)c2ccccc21 | 4.4 µM
CCCCCOc1ccc(Br)cc1CSC(=N)N | 1.86 µM
O=C(OCC1O[C@@H](OC(=O)c2cc(O)c(O)c(O)c2)[C@@H](OC(=O)c2cc(O)c(O)c(O)c2)[C@@H](OC(=O)c2cc(O)c(O)c(O)c2)[C@@H]1OC(=O)c1cc(O)c(O)c(O)c1)c1cc(O)c(O)c(O)c1 (stereo not given in full) | 14 µM
S=C(NCc1ccncc1)Nc1ccc(Cl)c(Cl)c1 | 46.2 µM
Brc1cccc(CNc2nc3ccccc3n2CCN2CCCCC2)c1 | 26.3 µM
OCCCNc1nc(-c2ccc(Cl)cc2)nnc1-c1ccc(Br)cc1 | 19.8 µM
O=C(O)CSc1cc(NS(=O)(=O)c2cccc([N+](=O)[O-])c2)c2ccccc2c1O | 8.07 µM
C=CCNc1ncnc2c1[nH]c1ccccc12 | 46 µM
O=C(Cc1n[nH]c(=O)c2ccccc12)OCC(=O)c1ccc2c(c1)OCCO2 | 1.34 µM
CN1CCN(C(c2ccc(Cl)cc2)c2cc(Cl)c3cccnc3c2O)CC1 (stereo not given) | 1.66 µM
c1ccc2c(c1)ncn2CCCCOc1ccc2c(c1)CCC2 | 15 µM
CCCCCn1c(N)c(C(=O)NCc2cccs2)c2nc3ccccc3nc21 | 15.4 µM
Cc1ccc(NC(=S)NC(NC(=O)c2ccco2)C(Cl)(Cl)Cl)cc1 (stereo not given) | 19.6 µM
CN1CCN(C(c2ccccn2)c2cc(Cl)c3cccnc3c2O)CC1 (stereo not given) | 9.2 µM
CNc1nc(NCc2ccccc2)c2ccccc2n1 | 10 µM
Oc1ccc(CN2CCCc3ccccc32)c2cccnc12 | 3.37 µM
O=C(c1ccccc1)c1c2c(cc3sc4ccccc4[n+]13)-c1cccc3cccc-2c13 | 1.28 µM
Cc1[nH]c2ccccc2c1C(=O)COC(=O)c1ccc([N+](=O)[O-])s1 | 47.5 µM
CC(=O)NC(c1cccc([N+](=O)[O-])c1)c1ccc2cccnc2c1O (stereo not given) | 0.49 µM
O=C1c2ccccc2C(=O)c2[nH]c(=O)[nH]c21 | 4.83 µM
CC(=O)NC(c1ccc(Cl)cc1Cl)c1ccc2cccnc2c1O (stereo not given) | 0.28 µM
COc1ccc(OC)c(C2=Nn3c(nnc3-c3cc(OC)c(OC)c(OC)c3)SC2)c1 | 22.6 µM
Cc1sc2ncnc(N/N=C/c3ccccc3O)c2c1C | 0.51 µM

Compound | EC50
O=[N+]([O-])c1cc(/C=N/Nc2nc3ccccc3[nH]2)c(O)cc1O | 1.21 µM
CCCCCCOC(=O)Sc1nc2ccccc2o1 | 35 µM
CCn1c(N)[n+](CC(=O)Nc2ccc(SC(F)F)cc2)c2ccccc21 | 13.3 µM
C/C(=C\C(=O)c1cccnc1)Nc1ccc(O)cc1 | 47.6 µM
CCCCCCCCOC(=O)C1=C(C)Nc2nnnn2C1c1cccs1 (stereo not given) | 21.8 µM
Cc1cc(/C=N/n2c(COc3ccccc3C)nc3ccccc3c2=O)c(O)c([N+](=O)[O-])c1 | 2.52 µM
CC(O)CNCCNCc1c(OCc2ccccc2)ccc2ccccc12 (stereo not given) | 14.2 µM
CCc1ccc(NC(=O)C[n+]2cc(-c3ccc(C)cc3)n3c2CCC3)cc1 | 5.74 µM
CCCC(=O)NC(c1cccs1)c1cc([N+](=O)[O-])c2cccnc2c1O (stereo not given) | 7.09 µM
N#C/C(=C\c1c(Cl)cccc1Cl)c1nc2ccccc2[nH]1 | 27.9 µM
CN(c1ccccc1)S(=O)(=O)c1cc(C(=O)Nc2nc3ccccc3[nH]2)ccc1Cl | 24.1 µM
Cc1cc(C)nc(/N=C(\N)Nc2ccc(SC(F)F)cc2)n1 | 13.1 µM
Cc1cc(C)c2nc(NNC(=O)c3ccc(S(=O)(=O)N4CCc5ccccc5C4)cc3)sc2c1 | 1.69 µM
CN(C)c1ccc([C@@H]2[C@@H]([N+](=O)[O-])[C@H]3C=Cc4ccccc4N3[C@H]2C(=O)c2ccc(Cl)cc2)cc1 | 20.6 µM
O=S1(=O)Nc2c(ccc3cccnc23)-c2ccccc21 | 0.69 µM
CCC(C)(C)c1ccc(OCCCC[n+]2ccccc2)c(C(C)(C)CC)c1 | 1.2 µM
COc1ccc(-c2csc(NCc3ccco3)n2)cc1 | 38.5 µM
O=[N+]([O-])c1ccc(O)c2ncccc12 | 8.31 µM
O=C(Oc1c(CN2CCOCC2)cc(Cl)c2cccnc12)c1ccc(F)cc1 | 7.06 µM
Oc1c(C(c2ccccn2)N2CCOCC2)ccc2cccnc12 (stereo not given) | 13.8 µM
COc1ccc(NC(C)C(=O)Nc2ccc(C(C)(C)C)cc2)cc1Cl (stereo not given) | 40.7 µM
COc1ccc(OCc2n(CC(=O)OC3CC(C)CCC3C(C)C)c3ccccc3[n+]2C)cc1 (stereo not given) | 1.6 µM
Cc1scc(C(=O)N/N=C/c2ccc([N+](=O)[O-])o2)c1C | 19.9 µM

Compound | EC50
O=C(CN1CCCC1)N/N=C/c1c(O)ccc2ccccc12 | 3.43 µM
Cn1c(=N)n(CC(=O)c2ccc(Br)s2)c2ccccc21 | 10.1 µM
COc1cc(C(=O)NC(=S)Nc2ccc3oc(=O)ccc3c2)cc(OC)c1OC | 45.9 µM
O=C(/C=C/c1ccccc1Cl)c1ccccc(=O)c1O | 12.6 µM
CC(=O)n1cc(/C=N/NC(=O)c2sc(C)nc2C)c2ccccc21 | 11.6 µM
Cc1ccccc1OCc1n(CC(=O)OC2CC(C)CCC2C(C)C)c2ccccc2[n+]1C (stereo not given) | 2 µM
Nc1nc(F)nc2c1ncn2[C@@H]1O[C@H](CO)[C@@H](O)[C@H]1O | 0.3 µM
Cc1ccc2nc(C)c(CN3CCN(c4ccc([N+](=O)[O-])cc4Cl)CC3)n2c1 | 19.7 µM
O=C(N/N=C/c1cc(O)ccc1Br)c1cccnc1 | 2.25 µM
Cc1[nH]c2ccccc2c1C(O)CN1CCN(c2cccc(C(F)(F)F)c2)CC1 (stereo not given) | 9.39 µM
COc1cccc(Nc2nc(-c3sc(NC(=O)c4ccco4)nc3C)cs2)c1 | 40.5 µM
CCOC(=O)C1=Nc2ccccc2C1=[N+]=[N-] | 27.2 µM
Cc1ccc2nc(NNC(=O)c3ccc(S(=O)(=O)N4CCc5ccccc5C4)cc3)sc2c1 | 1.83 µM
Cc1cc(C(=O)N/N=C/c2ccc([N+](=O)[O-])s2)n[nH]1 | 12.8 µM
O=C(Nc1nc(-c2ccccn2)cs1)c1ccc(Cl)s1 | 0.8 µM
Clc1ccc(Nc2ncnc3c2cnn3-c2ccccc2)cc1 | 30.1 µM
CCOC(=O)c1ccc(-c2ccc(C3Nc4ccccc4C(=O)N3O)o2)cc1 (stereo not given) | 9.38 µM
CN(C)c1ccc(O)c2c1CC1CC3C(N(C)C)C(=O)C(C(N)=O)=C(O)[C@@]3(O)C(=O)C1=C2O (stereo not given in full) | 36.6 µM
Oc1ccc(Br)cc1-c1nc2cnccn2c1NC1CCCCC1 | 46.4 µM
Oc1cccc(/C=N/NC(=S)Nc2cccnc2)c1O | 4.11 µM
CCCCCCCCCCOC(=O)Cn1c(COc2ccc(C)cc2)[n+](C)c2ccccc21 | 3.37 µM
O=CN/N=C/c1c(O)ccc2ccccc12 | 5.18 µM
Cc1nc2c(=O)n(C)c(=O)nc-2n(C)n1 | 1.22 µM
